Assay: xn = mol fraction of the nth substance listed
Details: Liquid

CCCCO [butan-1-ol] + O=C=O
Details | mass density [kg/m3]
313.1 K, 1008 kPa, x2 = 0.0251 | 798.08
313.1 K, 2011 kPa, x2 = 0.0251 | 798.9
313.1 K, 3006 kPa, x2 = 0.0251 | 799.7
313.1 K, 4012 kPa, x2 = 0.0251 | 800.54
313.1 K, 5008 kPa, x2 = 0.0251 | 801.32
313.1 K, 6013 kPa, x2 = 0.0251 | 802.14
313.1 K, 7004 kPa, x2 = 0.0251 | 802.94
313.1 K, 8023 kPa, x2 = 0.0251 | 803.75
313.1 K, 9037 kPa, x2 = 0.0251 | 804.53
313.1 K, 9990 kPa, x2 = 0.9698 | 711.97
313.1 K, 10005 kPa, x2 = 0.0251 | 805.29
313.1 K, 11011 kPa, x2 = 0.0251 | 806.08
313.1 K, 11014 kPa, x2 = 0.9698 | 740.16
313.1 K, 12018 kPa, x2 = 0.0251 | 806.83
313.1 K, 12040 kPa, x2 = 0.9698 | 761.46
313.1 K, 12987 kPa, x2 = 0.9698 | 777.57
313.1 K, 13003 kPa, x2 = 0.0251 | 807.56
313.1 K, 14007 kPa, x2 = 0.0251 | 808.31
313.1 K, 14020 kPa, x2 = 0.9698 | 792.52
313.1 K, 15009 kPa, x2 = 0.0251 | 809.03
313.1 K, 15028 kPa, x2 = 0.9698 | 805.22
313.1 K, 16004 kPa, x2 = 0.0251 | 809.77
313.1 K, 16029 kPa, x2 = 0.9698 | 816.46
313.1 K, 17000 kPa, x2 = 0.9698 | 826.34
313.1 K, 17005 kPa, x2 = 0.0251 | 810.49
313.1 K, 18019 kPa, x2 = 0.0251 | 811.19
313.1 K, 18024 kPa, x2 = 0.9698 | 835.89
313.1 K, 19019 kPa, x2 = 0.0251 | 811.89
313.1 K, 19027 kPa, x2 = 0.9698 | 844.46
313.1 K, 20020 kPa, x2 = 0.0251 | 812.59
313.1 K, 20021 kPa, x2 = 0.9698 | 852.41
313.1 K, 21013 kPa, x2 = 0.9698 | 859.87
313.1 K, 21027 kPa, x2 = 0.0251 | 813.29
313.1 K, 22005 kPa, x2 = 0.0251 | 813.97
313.1 K, 22032 kPa, x2 = 0.9698 | 867.02
313.1 K, 23006 kPa, x2 = 0.9698 | 873.5
313.1 K, 23011 kPa, x2 = 0.0251 | 814.69
313.1 K, 24004 kPa, x2 = 0.0251 | 815.36
313.1 K, 24011 kPa, x2 = 0.9698 | 879.83
313.1 K, 25028 kPa, x2 = 0.0251 | 816.1
313.11 K, 1990 kPa, x2 = 0.0857 | 802.76
313.11 K, 3001 kPa, x2 = 0.0857 | 803.63
313.11 K, 4009 kPa, x2 = 0.0857 | 804.54
313.11 K, 5013 kPa, x2 = 0.0857 | 805.41
313.11 K, 6014 kPa, x2 = 0.0857 | 806.27
313.11 K, 7009 kPa, x2 = 0.0857 | 807.15
313.11 K, 8011 kPa, x2 = 0.0857 | 807.98
313.11 K, 9009 kPa, x2 = 0.0857 | 808.79
313.11 K, 10011 kPa, x2 = 0.0857 | 809.65
313.11 K, 10994 kPa, x2 = 0.0857 | 810.46
313.11 K, 12007 kPa, x2 = 0.0857 | 811.26
313.11 K, 13022 kPa, x2 = 0.0857 | 812.06
313.11 K, 13999 kPa, x2 = 0.0857 | 812.83
313.11 K, 15014 kPa, x2 = 0.0857 | 813.63
313.11 K, 16013 kPa, x2 = 0.0857 | 814.38
313.11 K, 16994 kPa, x2 = 0.0857 | 815.12
313.11 K, 18005 kPa, x2 = 0.0857 | 815.89
313.11 K, 19008 kPa, x2 = 0.0857 | 816.61
313.11 K, 20010 kPa, x2 = 0.0857 | 817.4
313.11 K, 20990 kPa, x2 = 0.0857 | 818.09
313.11 K, 22028 kPa, x2 = 0.0857 | 818.85
313.11 K, 22900 kPa, x2 = 0.0857 | 819.47
313.11 K, 23996 kPa, x2 = 0.0857 | 820.3
313.11 K, 25047 kPa, x2 = 0.0857 | 821.11
313.15 K, 9101 kPa, x2 = 0.4972 | 830.36
313.15 K, 10085 kPa, x2 = 0.4972 | 831.83
313.15 K, 11056 kPa, x2 = 0.4972 | 833.28
313.15 K, 12062 kPa, x2 = 0.4972 | 834.75
313.15 K, 13043 kPa, x2 = 0.4972 | 836.14
313.15 K, 14050 kPa, x2 = 0.4972 | 837.54
313.15 K, 15053 kPa, x2 = 0.4972 | 838.9
313.15 K, 16037 kPa, x2 = 0.4972 | 840.22
313.15 K, 17055 kPa, x2 = 0.4972 | 841.56
313.15 K, 18037 kPa, x2 = 0.4972 | 842.85
313.15 K, 19023 kPa, x2 = 0.4972 | 844.11
313.15 K, 20041 kPa, x2 = 0.4972 | 845.39
313.15 K, 21003 kPa, x2 = 0.4972 | 846.61
313.15 K, 22068 kPa, x2 = 0.4972 | 847.91
313.15 K, 23079 kPa, x2 = 0.4972 | 849.14
313.15 K, 24016 kPa, x2 = 0.4972 | 850.27
313.15 K, 25033 kPa, x2 = 0.4972 | 851.48
313.16 K, 10073 kPa, x2 = 0.5965 | 836.7
313.16 K, 10087 kPa, x2 = 0.8663 | 805.12

Source: the NIST ThermoML archive (doi:10.1021/je700261b)
